Test results published in patent US20110244506A1, “EGFR DEPENDENT MODULATION OF CHEMOKINE EXPRESSION AND INFLUENCE ON THERAPY AND DIAGNOSIS OF TUMORS AND SIDE EFFECTS THEREOF” (Merck Patent GmbH, priority 2005, published 2011).

Key:
STAT3 = assay: Western blotting of STAT3 phosphorylation in keratinocytes; format: cell-based; details: with or without TGFa or TNFa, 24 h
Procedure: (§1) In these experiments keratinocytes were treated with different concentrations of anti-EGFR inhibitors followed by treatment with or without TGF alpha or TNF alpha for, approximately, 24 h. Effects of anti-EGFR inhibitors were evaluated using Western blotting.
(§2) After 24 h, cells were lysed and analysed by Western blotting.

RANTES, A431 = assay: Secreted RANTES levels in A431 (Luminex); format: cell-based; details: A431, with or without TGFa or TNFa, 24 h, supernatant
Procedure: (§3) Tumor cells were treated with anti-EGFR agents and this was followed by treatment with or without TGF alpha or TNF alpha. Secreted chemokines were evaluated in conditioned medium of tumor cells obtained after 24 h. Evaluation was carried out with the Luminex bead technology.
(§4) After 24 h, cellular supernatants were collected and levels of RANTES were quantified using the Luminex technology.

IP-10, keratinocytes = assay: Secreted IP-10 levels in keratinocytes (Luminex); format: cell-based; details: with or without TGFa or TNFa, 24 h, supernatant
Procedure: (§5) Evaluations were carried out with the Luminex bead technology. In these experiments keratinocytes were treated with anti-EGFR inihibitors followed by treatment with or without TGF alpha or TNF alpha.
(§6) After 24 h, cellular supernatants were collected and levels of IP-10 were quantified using the Luminex technology.

IL-8, keratinocytes = assay: Secreted IL-8 levels in keratinocytes (Luminex); format: cell-based; details: with or without TGFa or TNFa, 24 h, supernatant
Procedure: as §5
(§7) After 24 h, cellular supernatants were collected and levels of IL-8 were quantified using the Luminex technology.

IP-10, A431 = assay: Secreted IP-10 levels in A431 (Luminex); format: cell-based; details: A431, with or without TGFa or TNFa, 24 h, supernatant
Procedure: as §3, §6

RANTES, keratinocytes = assay: Secreted RANTES levels in keratinocytes (Luminex); format: cell-based; details: with or without TGFa or TNFa, 24 h, supernatant
Procedure: as §5, §4

ERK1/2 (Thr 202/204) = assay: Western blotting of ERK1/2 phosphorylation in keratinocytes; details: with or without TGFa or TNFa, 24 h
IL-8, A431 = assay: Secreted IL-8 levels in A431 (Luminex); format: cell-based; details: for secreted IL-8 levels: A431, with or without TGFa or TNFa, 24 h, supernatant
Procedure: as §3, §7
(§8) Cells were treated with 100 ng/ml Cmab or Mmab and stimulated with 100 ng/ml TGFa; number of experiments=1

COX-2 = assay: Western blotting of COX-2 protein in keratinocytes; format: cell-based; details: with or without TGFa or TNFa, 24 h
Procedure: as §1, §2

EGFR (Tyr 1068) = EGFR (Tyr 1068) (Homo sapiens, UniProt P00533); assay: Western blotting of EGFR phosphorylation in keratinocytes; details: with or without TGFa or TNFa, 24 h
IL-8, U87MG = assay: Secreted IL-8 levels in U87MG (Luminex); format: cell-based; details: 100 ng/ml antibody, stimulated with 100 ng/ml TGFa, number of experiments=1
Procedure: as §7, §8

IL-8, PC-3 = assay: Secreted IL-8 levels in PC-3 (Luminex); format: cell-based; details: 100 ng/ml antibody, stimulated with 100 ng/ml TGFa, number of experiments=1
Procedure: as §7, §8

IL-8, MCF-7 = assay: Secreted IL-8 levels in MCF-7 (Luminex); format: cell-based; details: 100 ng/ml antibody, stimulated with 100 ng/ml TGFa, number of experiments=1
Procedure: as §7, §8

IL-8, HT29 = assay: Secreted IL-8 levels in HT29 (Luminex); format: cell-based; details: 100 ng/ml antibody, stimulated with 100 ng/ml TGFa, number of experiments=1
Procedure: as §7, §8

IL-8, DiFi = assay: Secreted IL-8 levels in DiFi (Luminex); format: cell-based; details: 100 ng/ml antibody, stimulated with 100 ng/ml TGFa, number of experiments=1
Procedure: as §7, §8

[1] = test system: EGFR-dependent signaling cascades, tumor cell lines such as A431; assay: EGFR-dependent signaling cascades in tumor cell lines; format: cell-based; details: various tumor cell lines such as A431
[2] = test system: IL-8, tumor cell lines (DiFi, HT29, A431, MCF-7, PC-3 and U87 MG); assay: Secreted IL-8 levels in different tumor cell lines (Luminex); format: cell-based; details: stimulated with TGFa, 24 h
Procedure: as §7

phosphorylation of EGFR (Tyr 1068) (EGFR (Tyr 1068)) | Molecule | phosphorylation of STAT3 (STAT3) | secreted RANTES levels (RANTES, A431) | secreted IP-10 levels (IP-10, keratinocytes) | secreted IL-8 levels (IL-8, keratinocytes) | secreted IP-10 levels (IP-10, A431) | secreted RANTES levels (RANTES, keratinocytes) | phosphorylation of ERK1/2 (Thr 202/204) (ERK1/2 (Thr 202/204)) | secreted IL-8 levels (IL-8, A431) | expression of COX-2 (COX-2) | IL-8 levels (IL-8, U87MG) [% control] | IL-8 levels (IL-8, PC-3) [% control] | IL-8 levels (IL-8, MCF-7) [% control] | IL-8 levels (IL-8, HT29) [% control] | IL-8 levels (IL-8, DiFi) [% control] | EGFR-dependent signaling cascades [1] | IL-8 levels (IL-8, A431; A431, 100 ng/ml antibody, stimulated with 100 ng/ml TGFa, number of experiments=1) [% control] | secreted IL-8 levels [2]
 | COc1cc2ncnc(Nc3ccc(F)c(Cl)c3)c2cc1OCCCN1CCOCC1 [Iressa, gefitinib, reference compound] | prevented phosphorylation of STAT3 | up-regulated RANTES in a dose-dependent manner | up-regulated IP-10 in a dose-dependent manner | down-regulated IL-8 in a dose-dependent manner | up-regulated IP-10 in a dose-dependent manner | up-regulated RANTES in a dose-dependent manner | prevented phosphorylation | down-regulated IL-8 in a dose-dependent manner | induced expression of COX-2 |  |  |  |  |  |  |  | 
prevented phosphorylation | Matuzumab: humanized monoclonal antibody 425 directed to the EGF receptor | prevented phosphorylation of STAT3 | up-regulated RANTES in a dose-dependent manner | up-regulated IP-10 in a dose-dependent manner | down-regulated IL-8 in a dose-dependent manner | up-regulated IP-10 in a dose-dependent manner | up-regulated RANTES in a dose-dependent manner | prevented phosphorylation | down-regulated IL-8 in a dose-dependent manner | induced expression of COX-2 | 58 | 76 | 49 | 30 | 28 | interferes with EGFR-dependent signaling cascades | 15 | down-regulated IL-8 in all tumor cell lines investigated in a dose-dependent manner
